The Kd is the concentration at which binding is half-saturated.

Kd data for ten molecules are collected here from ChEMBL document CHEMBL3991601, “The target landscape of clinical kinase drugs” (Science, 2017).

Calls of active or inactive are those of the source.

Experiment [1] concerns the target Citron Rho-interacting kinase (Homo sapiens, UniProt O14578).
Another experiment has as its target T1, dCTP pyrophosphatase 1 (Homo sapiens, UniProt Q9H773).
T1 sequence (Q9H773 whole entry): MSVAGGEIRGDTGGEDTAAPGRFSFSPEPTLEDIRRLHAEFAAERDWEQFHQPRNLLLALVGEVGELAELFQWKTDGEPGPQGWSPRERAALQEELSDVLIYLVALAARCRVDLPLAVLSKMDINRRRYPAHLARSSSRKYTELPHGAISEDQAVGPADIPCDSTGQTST

The target of experiment [2] is Serine/threonine-protein kinase PAK 4 (Homo sapiens, UniProt O96013).
Another experiment addresses T2, Septin-9 (Homo sapiens, UniProt Q9UHD8).
T2 sequence (Q9UHD8 whole entry): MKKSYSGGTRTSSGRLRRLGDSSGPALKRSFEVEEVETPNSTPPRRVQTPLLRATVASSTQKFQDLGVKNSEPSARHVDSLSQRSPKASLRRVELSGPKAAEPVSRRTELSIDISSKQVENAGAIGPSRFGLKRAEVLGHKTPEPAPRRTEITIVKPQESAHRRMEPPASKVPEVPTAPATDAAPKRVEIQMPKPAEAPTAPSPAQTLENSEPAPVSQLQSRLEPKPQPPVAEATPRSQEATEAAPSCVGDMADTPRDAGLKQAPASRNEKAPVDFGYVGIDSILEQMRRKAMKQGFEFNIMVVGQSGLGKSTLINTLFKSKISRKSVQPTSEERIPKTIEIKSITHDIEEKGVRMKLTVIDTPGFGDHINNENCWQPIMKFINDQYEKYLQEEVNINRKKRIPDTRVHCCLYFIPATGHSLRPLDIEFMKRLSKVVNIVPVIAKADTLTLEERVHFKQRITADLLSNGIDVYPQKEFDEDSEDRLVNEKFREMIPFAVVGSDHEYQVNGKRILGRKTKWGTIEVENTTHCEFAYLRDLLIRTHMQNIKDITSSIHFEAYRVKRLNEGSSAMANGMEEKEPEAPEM

In experiment [3] the target is Serine/threonine-protein kinase 16 (Homo sapiens, UniProt O75716).
Chain of Serine/threonine-protein kinase 16 (O75716 whole entry): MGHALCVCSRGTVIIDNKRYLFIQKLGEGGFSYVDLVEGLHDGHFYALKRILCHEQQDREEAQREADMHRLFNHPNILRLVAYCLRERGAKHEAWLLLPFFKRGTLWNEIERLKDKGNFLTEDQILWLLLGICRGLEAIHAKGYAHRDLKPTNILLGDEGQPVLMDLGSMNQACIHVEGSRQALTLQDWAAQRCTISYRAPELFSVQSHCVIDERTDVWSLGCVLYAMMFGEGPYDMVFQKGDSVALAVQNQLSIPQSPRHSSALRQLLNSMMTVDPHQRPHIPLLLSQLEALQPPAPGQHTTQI
Experiment [4] addresses Protein kinase C alpha type (Homo sapiens, UniProt P17252).
In experiment [5] the target is Mitogen-activated protein kinase 1 (Homo sapiens, UniProt P28482).
Chain of Mitogen-activated protein kinase 1 (P28482 whole entry): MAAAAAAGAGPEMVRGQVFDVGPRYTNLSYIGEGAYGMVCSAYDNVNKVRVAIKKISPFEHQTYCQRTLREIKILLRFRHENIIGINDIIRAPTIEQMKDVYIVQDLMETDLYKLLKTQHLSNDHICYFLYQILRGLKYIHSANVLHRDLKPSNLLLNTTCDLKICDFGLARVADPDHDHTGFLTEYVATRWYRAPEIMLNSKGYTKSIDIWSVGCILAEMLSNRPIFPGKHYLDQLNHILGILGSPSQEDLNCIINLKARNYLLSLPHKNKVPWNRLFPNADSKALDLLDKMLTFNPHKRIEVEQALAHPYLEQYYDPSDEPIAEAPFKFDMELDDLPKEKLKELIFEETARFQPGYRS
Experiment [6] has as its target T3, Peroxisomal acyl-coenzyme A oxidase 3 (Homo sapiens, UniProt O15254).
T3 sequence (O15254 whole entry): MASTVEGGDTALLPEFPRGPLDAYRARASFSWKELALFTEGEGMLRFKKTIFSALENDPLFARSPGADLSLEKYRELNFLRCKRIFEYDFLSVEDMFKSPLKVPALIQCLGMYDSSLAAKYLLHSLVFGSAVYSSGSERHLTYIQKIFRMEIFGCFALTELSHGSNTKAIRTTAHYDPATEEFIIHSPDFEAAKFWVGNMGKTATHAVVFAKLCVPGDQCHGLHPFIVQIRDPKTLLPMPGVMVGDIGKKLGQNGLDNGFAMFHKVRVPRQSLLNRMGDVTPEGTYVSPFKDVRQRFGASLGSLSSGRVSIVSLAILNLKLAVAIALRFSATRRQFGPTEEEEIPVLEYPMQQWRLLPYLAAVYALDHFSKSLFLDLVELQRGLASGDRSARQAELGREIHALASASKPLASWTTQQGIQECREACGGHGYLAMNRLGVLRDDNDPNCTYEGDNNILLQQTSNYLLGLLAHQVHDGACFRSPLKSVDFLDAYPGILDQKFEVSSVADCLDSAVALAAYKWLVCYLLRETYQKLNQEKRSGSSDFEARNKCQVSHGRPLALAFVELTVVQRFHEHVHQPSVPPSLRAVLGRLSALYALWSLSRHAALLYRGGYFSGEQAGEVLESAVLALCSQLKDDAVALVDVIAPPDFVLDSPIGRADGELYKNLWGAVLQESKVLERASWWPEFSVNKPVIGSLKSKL

The target of experiment [7] is T4, Membrane-associated tyrosine- and threonine-specific cdc2-inhibitory kinase (Homo sapiens, UniProt Q99640).
T4 sequence (Q99640 whole entry): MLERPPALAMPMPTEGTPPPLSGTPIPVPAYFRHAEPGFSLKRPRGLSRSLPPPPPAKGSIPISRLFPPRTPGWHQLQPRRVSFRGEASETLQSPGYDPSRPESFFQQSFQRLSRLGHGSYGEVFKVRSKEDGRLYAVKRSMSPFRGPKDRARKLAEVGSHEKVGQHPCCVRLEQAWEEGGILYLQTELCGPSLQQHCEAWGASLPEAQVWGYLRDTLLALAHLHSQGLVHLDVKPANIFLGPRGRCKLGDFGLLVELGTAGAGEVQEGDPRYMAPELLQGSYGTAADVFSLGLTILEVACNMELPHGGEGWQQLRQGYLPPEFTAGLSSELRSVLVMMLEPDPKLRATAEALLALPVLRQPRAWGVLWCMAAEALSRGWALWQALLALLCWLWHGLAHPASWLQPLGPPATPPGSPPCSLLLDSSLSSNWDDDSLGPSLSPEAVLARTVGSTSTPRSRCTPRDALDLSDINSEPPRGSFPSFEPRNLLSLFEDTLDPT

The target in experiment [8] is Cyclin-dependent kinase 7 (Homo sapiens, UniProt P50613).
The target in another experiment is Insulin receptor (Homo sapiens, UniProt P06213).
Chain of Insulin receptor (P06213 28-758 limits assumed): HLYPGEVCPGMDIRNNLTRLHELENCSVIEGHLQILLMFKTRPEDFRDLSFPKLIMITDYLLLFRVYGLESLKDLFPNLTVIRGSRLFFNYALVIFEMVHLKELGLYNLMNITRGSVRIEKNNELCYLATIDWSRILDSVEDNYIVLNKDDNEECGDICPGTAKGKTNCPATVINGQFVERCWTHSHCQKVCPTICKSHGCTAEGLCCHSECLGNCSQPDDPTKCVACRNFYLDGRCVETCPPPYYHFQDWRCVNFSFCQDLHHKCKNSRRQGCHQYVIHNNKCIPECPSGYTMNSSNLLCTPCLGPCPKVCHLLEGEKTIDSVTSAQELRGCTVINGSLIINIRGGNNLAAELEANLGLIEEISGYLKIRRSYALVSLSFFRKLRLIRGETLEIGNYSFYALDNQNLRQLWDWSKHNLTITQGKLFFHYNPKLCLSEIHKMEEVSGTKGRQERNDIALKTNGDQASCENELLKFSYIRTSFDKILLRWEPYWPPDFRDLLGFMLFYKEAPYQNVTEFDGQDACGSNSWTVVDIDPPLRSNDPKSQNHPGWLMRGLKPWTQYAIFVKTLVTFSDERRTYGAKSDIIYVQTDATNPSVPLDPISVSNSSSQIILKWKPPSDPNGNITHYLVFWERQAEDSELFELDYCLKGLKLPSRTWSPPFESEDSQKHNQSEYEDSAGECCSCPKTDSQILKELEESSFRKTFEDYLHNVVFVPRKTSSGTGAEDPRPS
Chain of Insulin receptor (P06213 763-1382 limits assumed): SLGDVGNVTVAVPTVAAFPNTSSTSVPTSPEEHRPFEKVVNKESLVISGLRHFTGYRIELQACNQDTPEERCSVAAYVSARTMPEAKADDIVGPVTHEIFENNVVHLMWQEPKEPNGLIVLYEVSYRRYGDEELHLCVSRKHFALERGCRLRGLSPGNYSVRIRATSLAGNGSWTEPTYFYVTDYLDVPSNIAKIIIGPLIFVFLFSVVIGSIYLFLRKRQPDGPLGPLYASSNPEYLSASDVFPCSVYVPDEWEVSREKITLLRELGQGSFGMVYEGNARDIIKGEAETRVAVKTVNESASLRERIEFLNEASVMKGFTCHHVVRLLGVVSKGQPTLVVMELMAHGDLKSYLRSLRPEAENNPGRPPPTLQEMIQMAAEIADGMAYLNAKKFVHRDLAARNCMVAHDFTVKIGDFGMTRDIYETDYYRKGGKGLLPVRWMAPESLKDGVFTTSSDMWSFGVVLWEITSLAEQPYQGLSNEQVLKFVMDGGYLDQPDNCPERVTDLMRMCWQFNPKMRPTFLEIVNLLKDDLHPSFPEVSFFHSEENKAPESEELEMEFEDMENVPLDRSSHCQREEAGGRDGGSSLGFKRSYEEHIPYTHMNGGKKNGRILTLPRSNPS
The target of experiment [9] is S-adenosylmethionine synthase isoform type-2 (Homo sapiens, UniProt P31153).
Experiment [10] has as its target Casein kinase I isoform alpha (Homo sapiens, UniProt P48729).
In experiment [11] the target is Mitogen-activated protein kinase 7 (Homo sapiens, UniProt Q13164).
Further: in the data inactive means no Kd found up to 30 µM.

Chain of Casein kinase I isoform alpha (P48729 whole entry, canonical isoform): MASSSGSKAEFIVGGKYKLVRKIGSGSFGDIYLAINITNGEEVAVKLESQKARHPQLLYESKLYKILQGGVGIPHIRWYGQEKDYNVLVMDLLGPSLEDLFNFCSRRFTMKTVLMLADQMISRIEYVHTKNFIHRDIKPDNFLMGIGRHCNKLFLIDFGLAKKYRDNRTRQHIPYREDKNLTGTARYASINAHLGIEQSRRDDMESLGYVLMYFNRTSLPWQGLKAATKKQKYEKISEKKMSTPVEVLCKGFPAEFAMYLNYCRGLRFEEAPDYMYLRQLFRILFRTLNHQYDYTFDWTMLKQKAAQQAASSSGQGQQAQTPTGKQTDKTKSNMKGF
Chain of Citron Rho-interacting kinase (O14578 whole entry): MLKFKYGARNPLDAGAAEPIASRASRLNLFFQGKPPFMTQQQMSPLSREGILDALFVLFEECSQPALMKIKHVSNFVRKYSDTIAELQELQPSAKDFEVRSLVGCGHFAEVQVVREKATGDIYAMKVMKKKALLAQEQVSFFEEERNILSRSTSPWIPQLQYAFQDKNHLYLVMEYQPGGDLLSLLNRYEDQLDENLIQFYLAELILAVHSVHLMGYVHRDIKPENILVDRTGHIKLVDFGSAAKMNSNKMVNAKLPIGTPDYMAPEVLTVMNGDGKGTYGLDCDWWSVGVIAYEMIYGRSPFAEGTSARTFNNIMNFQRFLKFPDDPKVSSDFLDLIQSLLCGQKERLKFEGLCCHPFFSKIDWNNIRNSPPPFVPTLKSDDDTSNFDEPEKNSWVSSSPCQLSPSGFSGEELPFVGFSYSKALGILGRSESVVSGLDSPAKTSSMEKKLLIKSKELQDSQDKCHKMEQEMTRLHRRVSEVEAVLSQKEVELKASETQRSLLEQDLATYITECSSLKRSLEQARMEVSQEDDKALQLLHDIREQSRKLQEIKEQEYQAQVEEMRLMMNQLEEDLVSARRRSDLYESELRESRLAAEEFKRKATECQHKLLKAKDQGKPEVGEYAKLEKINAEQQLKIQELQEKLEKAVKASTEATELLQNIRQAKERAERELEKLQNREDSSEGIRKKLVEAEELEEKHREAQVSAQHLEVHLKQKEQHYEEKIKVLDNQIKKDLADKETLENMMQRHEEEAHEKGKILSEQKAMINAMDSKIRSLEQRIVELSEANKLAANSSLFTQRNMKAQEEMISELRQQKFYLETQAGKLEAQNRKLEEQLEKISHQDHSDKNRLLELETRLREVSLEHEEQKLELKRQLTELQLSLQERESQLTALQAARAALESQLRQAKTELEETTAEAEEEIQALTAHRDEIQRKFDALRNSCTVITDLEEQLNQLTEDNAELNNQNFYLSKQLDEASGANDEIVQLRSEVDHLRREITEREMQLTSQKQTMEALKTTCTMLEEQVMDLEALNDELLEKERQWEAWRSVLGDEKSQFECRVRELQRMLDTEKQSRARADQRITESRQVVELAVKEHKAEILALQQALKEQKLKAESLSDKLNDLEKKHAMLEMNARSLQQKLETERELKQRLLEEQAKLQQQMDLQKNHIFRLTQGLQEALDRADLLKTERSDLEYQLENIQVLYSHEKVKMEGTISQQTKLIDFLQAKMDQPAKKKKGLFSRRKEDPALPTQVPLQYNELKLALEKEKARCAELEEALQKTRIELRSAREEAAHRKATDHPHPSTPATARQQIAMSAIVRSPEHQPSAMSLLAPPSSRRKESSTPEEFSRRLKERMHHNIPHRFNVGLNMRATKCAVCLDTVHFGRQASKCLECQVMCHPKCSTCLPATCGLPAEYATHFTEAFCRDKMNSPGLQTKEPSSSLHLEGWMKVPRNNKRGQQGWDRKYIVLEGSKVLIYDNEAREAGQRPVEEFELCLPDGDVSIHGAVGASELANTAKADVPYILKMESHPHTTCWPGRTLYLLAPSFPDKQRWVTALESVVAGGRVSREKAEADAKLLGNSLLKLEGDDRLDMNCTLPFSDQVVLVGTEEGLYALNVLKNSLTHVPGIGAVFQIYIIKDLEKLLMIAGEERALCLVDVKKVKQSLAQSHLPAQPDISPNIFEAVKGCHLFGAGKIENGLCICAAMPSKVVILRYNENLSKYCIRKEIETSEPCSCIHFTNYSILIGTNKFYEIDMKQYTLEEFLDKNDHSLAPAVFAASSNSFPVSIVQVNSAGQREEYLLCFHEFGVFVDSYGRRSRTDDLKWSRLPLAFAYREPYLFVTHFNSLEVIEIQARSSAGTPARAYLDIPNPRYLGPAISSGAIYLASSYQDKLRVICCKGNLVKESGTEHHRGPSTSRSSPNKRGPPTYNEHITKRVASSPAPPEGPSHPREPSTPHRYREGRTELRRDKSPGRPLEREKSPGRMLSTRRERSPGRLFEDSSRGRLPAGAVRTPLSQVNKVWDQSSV

Regarding `O=c1[nH]c([C@@H]2CCCN2)nc2c1oc1ccc(Cl)cc12`, the Kd is 3.66 µM (active) in experiment [1]; > 30 µM (inactive) on dCTP pyrophosphatase 1; > 30 µM (inactive) in experiment [2]; > 30 µM (inactive) on Septin-9; > 30 µM (inactive) in experiment [3]; > 30 µM (inactive) in [4]. Besides, the Kd (in experiment [5]; in [6]; in experiment [7]; in experiment [8]; on Insulin receptor; in experiment [9]) was > 30 µM (inactive) in each case. In addition, the Kd in [10] was > 30 µM (inactive).
In the case of `CN1CCN(c2nc(C3=C(c4c[nH]c5ccccc45)C(=O)NC3=O)c3ccccc3n2)CC1` [SOTRASTAURIN], the Kd (in experiment [1]; on dCTP pyrophosphatase 1; in experiment [2]; on Septin-9; in experiment [3]; in [11]) was > 30 µM (inactive) in each case. The Kd in [5], in experiment [6], in [7], in experiment [8], in experiment [9] and in experiment [10] was > 30 µM (inactive) each time.
For the molecule `CCN1CCN(Cc2ccc(Nc3ncc(F)c(-c4cc(F)c5nc(C)n(C(C)C)c5c4)n3)nc2)CC1` [ABEMACICLIB], the Kd is 0.798 µM (active) in experiment [1]; > 30 µM (inactive) at dCTP pyrophosphatase 1; > 30 µM (inactive) in [2]; > 30 µM (inactive) at Septin-9; 0.495 µM (active) in [3]; 0.53 µM (active) in experiment [4]. The Kd (in [11]; in experiment [5]; in [6]; in experiment [7]; on Insulin receptor; in [9]) was > 30 µM (inactive) throughout. For the same molecule, the Kd in experiment [10] is > 30 µM (inactive).
As for `CCOc1ccn(-c2ccc(F)cc2)c(=O)c1C(=O)Nc1ccc(Oc2ccnc(N)c2Cl)c(F)c1` [BMS-777607], the Kd (in experiment [1]; on dCTP pyrophosphatase 1; in [2]; at Septin-9; in experiment [3]; in [4]) was > 30 µM (inactive) in each case. In addition, the Kd in experiment [11], in [5], in experiment [6], in experiment [7], in experiment [8] and in [9] was > 30 µM (inactive) in each case. Also, in experiment [10], the Kd was > 30 µM (inactive).
Consider `CC(C)(O)CC(=O)NCCn1ccc2ncnc(Nc3ccc(Oc4cccc(C(F)(F)F)c4)c(Cl)c3)c21` [TAK-285], for which the Kd (in [1]; at dCTP pyrophosphatase 1; in experiment [2]; on Septin-9; in experiment [4]; in experiment [5]) was > 30 µM (inactive) each time. In addition, the Kd (in [6]; in [7]; in experiment [8]; at Insulin receptor; in experiment [9]; in [10]) was > 30 µM (inactive) in each case.
Regarding `CC(C)CC(=O)Nc1[nH]nc2c1CN(C(=O)C1CCN(C)CC1)C2(C)C` [PHA-793887], the Kd was > 30 µM (inactive) in [1]; > 30 µM (inactive) at dCTP pyrophosphatase 1; 0.864 µM (active) in [2]; > 30 µM (inactive) on Septin-9; > 30 µM (inactive) in experiment [3]; > 30 µM (inactive) in experiment [4]. The Kd was > 30 µM (inactive) in experiment [11]; > 30 µM (inactive) in [6]; > 30 µM (inactive) in experiment [7]; 0.008 µM (active) in experiment [8]; > 30 µM (inactive) in [9]; > 30 µM (inactive) in experiment [10].
Take `NC[C@@](O)(c1ccc(Cl)cc1)c1ccc(-c2cn[nH]c2)cc1` [AT-13148]: the Kd (in experiment [1]; at dCTP pyrophosphatase 1; in [2]; at Septin-9; in experiment [3]; in [4]) was > 30 µM (inactive) in each case. Moreover, the Kd (in experiment [5]; in experiment [6]; in [7]; in experiment [8]; at Insulin receptor; in experiment [9]) was > 30 µM (inactive) in each case. Moreover, the Kd in experiment [10] is > 30 µM (inactive).
`O=S(=O)(c1cccc2c(O)nccc12)N1CCCNCC1` [HYDROXYFASUDIL]: the Kd (in experiment [1]; at dCTP pyrophosphatase 1; in [2]; at Septin-9; in experiment [3]; in experiment [11]) was > 30 µM (inactive) in each case. The Kd (in experiment [6]; in experiment [7]; in experiment [8]; on Insulin receptor; in [9]; in experiment [10]) was > 30 µM (inactive) throughout.
For the molecule `CCc1nc(C(N)=O)c(Nc2ccc(N3CCC(N4CCN(C)CC4)CC3)c(OC)c2)nc1NC1CCOCC1` [GILTERITINIB], the Kd in [1] is 2.35 µM (active); at dCTP pyrophosphatase 1 it was > 30 µM (inactive); in experiment [2], > 30 µM (inactive); at Septin-9, > 30 µM (inactive); in [3] it was 0.295 µM (active); in experiment [11], > 30 µM (inactive). Also, the Kd in experiment [5], in experiment [6], in [7], in experiment [8], in [9] and in experiment [10] was > 30 µM (inactive) in each case.
In the case of `C[C@]1(O)C[C@@H](c2nc(-c3ccc4ccc(-c5ccccc5)nc4c3)c3c(N)nccn32)C1` [LINSITINIB], the Kd (in experiment [1]; at dCTP pyrophosphatase 1; on Septin-9; in experiment [3]; in experiment [11]; in [6]) was > 30 µM (inactive) in each case. Besides, the Kd in experiment [7], in experiment [8] and in experiment [9] was > 30 µM (inactive) each time.
